Experimental data as given in patent publication US9315503B2, “Kinase inhibitors” (CHIESI FARMACEUTICI S.p.A., priority 2011, dated 2016).
pIC50: −log10 of the molar value. Counter-ions that a name gives are not always drawn.

target: T1, p38alpha (Homo sapiens, UniProt Q16539); assay: P38Alpha enzyme inhibition assay (Alphascreen kinase activity assay); type: biochemical; conditions: 100 pM p38alpha, 250 μM ATP, 2 hours pre-incubation at 25° C., read-out: p38α inhibition (IC50 values)
T1 construct: purchased Invitrogen PV3304
T1 sequence (Q16539 whole entry): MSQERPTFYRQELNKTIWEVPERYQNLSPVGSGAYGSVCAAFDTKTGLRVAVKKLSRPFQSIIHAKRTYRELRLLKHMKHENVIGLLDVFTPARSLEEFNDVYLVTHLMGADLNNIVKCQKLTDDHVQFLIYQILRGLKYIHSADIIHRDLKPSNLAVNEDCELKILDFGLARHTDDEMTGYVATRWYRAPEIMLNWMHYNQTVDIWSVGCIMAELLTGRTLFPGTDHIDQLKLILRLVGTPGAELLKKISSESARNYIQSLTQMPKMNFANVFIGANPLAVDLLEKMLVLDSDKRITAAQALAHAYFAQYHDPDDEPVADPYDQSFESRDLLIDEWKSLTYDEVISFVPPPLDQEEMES
Method: P38Alpha Enzyme Inhibition Assay.
The inhibitory activity of compounds was determined using an Alphascreen® (Perkin Elmer) based kinase activity assay. Kinase reactions consisted of 25 mM HEPES pH 7.5, 10 mM MgCl2, 100 μM Na3VO4, 2 mM DTT, 0.05 mg/ml Tween 20, 100 pM p38alpha (Invitrogen, PV3304), 1% DMSO and 0.3 μg/ml ATF-2 fusion protein (New England Biolabs, 9224). Compounds were incubated under these conditions for 2 hours, at 25° C., prior to the initiation of the kinase activity by the addition of the 250 μM ATP. Reaction volumes were 20 uL. After 1 hr at 25° C. reactions were stopped by the adding 10 uL of 25 mM HEPES pH 7.5 containing 62.5 mM EDTA, 0.05% Triton X-100, 10% BSA and 0.83 ng/uL anti-phospho-ATF2 antibody (Abeam, ab28812). Detection was performed by measuring luminescence following the addition of Alphascreen Donor beads (Perkin Elmer 6765300) and Protein A Alphascreen Acceptor beads (Perkin Elmer 6760137), both at a final concentration of 20 ug/ml. IC50 values were determined from concentration-response curves.

pIC50, > 8.00:
C[C@@H]1CCC[C@H](C)N1c1nnc2ccc(O[C@@H]3CC[C@H](NC(=O)Nc4cc(C(C)(C)C)nn4-c4cccc(CN5CCCC5)c4)c4ccccc43)cn12 [Example 144, 1-[5-tert-Butyl-2-(3-pyrrolidin-1-ylmethyl-phenyl)-2H-pyrazol-3-yl]-3-{(1S,4R)-4-[3-((2S,6R)-2,6-dimethyl-piperidin-1-yl)-[1,2,4]triazolo[4,3-a]pyridin-6-yloxy]-1,2,3,4-tetrahydro-naphthalen-1-yl}-urea formate salt]
CN(C)CCOc1cccc(-n2nc(C(C)(C)C)cc2NC(=O)N[C@H]2CC[C@@H](Oc3ccc4nnc(N5CCCCC56CC6)n4c3)c3ccccc32)c1 [Example 148, 1-{(1S,4R)-4-[3-(4-Aza-spiro[2.5]oct-4-yl)-[1,2,4]triazolo[4,3-a]pyridin-6-yloxy]-1,2,3,4-tetrahydro-naphthalen-1-yl}-3-{5-tert-butyl-2-[3-(2-dimethylamino-ethoxy)-phenyl]-2H-pyrazol-3-yl}-urea formate salt]
C[C@H]1CCCCN1c1nnc2ccc(O[C@@H]3CC[C@H](NC(=O)Nc4cc(C(C)(C)C)nn4-c4cccc(OCCN5CCCC5)c4)c4ccccc43)cn12 [Example 154, 1-{5-tert-Butyl-2-[3-(2-pyrrolidin-1-yl-ethoxy)-phenyl]-2H-pyrazol-3-yl}-3-{(1S,4R)-4-[3-((S)-2-methyl-piperidin-1-yl)-[1,2,4]triazolo[4,3-a]pyridin-6-yloxy]-1,2,3,4-tetrahydro-naphthalen-1-yl}-urea formate salt]
CCN(CC)CCOc1cccc(-n2nc(C(C)(C)C)cc2NC(=O)N[C@H]2CC[C@@H](Oc3ccc4nnc(N5CCCC[C@@H]5C)n4c3)c3ccccc32)c1 [Example 155, 1-{5-tert-Butyl-2-[3-(2-diethylamino-ethoxy)-phenyl]-2H-pyrazol-3-yl}-3-{(1S,4R)-4-[3-((S)-2-methyl-piperidin-1-yl)-[1,2,4]triazolo[4,3-a]pyridin-6-yloxy]-1,2,3,4-tetrahydro-naphthalen-1-yl}-urea formate salt]
C[C@H]1CCCCN1c1nnc2ccc(O[C@@H]3CC[C@H](NC(=O)Nc4cc(C(C)(C)C)nn4-c4cccc(OCCN5CCOCC5)c4)c4ccccc43)cn12 [Example 156, 1-{5-tert-Butyl-2-[3-(2-morpholin-4-yl-ethoxy)-phenyl]-2H-pyrazol-3-yl}-3-{(1S,4R)-4-[3-((S)-2-methyl-piperidin-1-yl)-[1,2,4]triazolo[4,3-a]pyridin-6-yloxy]-1,2,3,4-tetrahydro-naphthalen-1-yl}-urea partial formate salt]
C[C@H]1CCCCN1c1nnc2ccc(O[C@@H]3CC[C@H](NC(=O)Nc4cc(C(C)(C)C)nn4-c4cccc(OCCN5CCCCC5)c4)c4ccccc43)cn12 [Example 157, 1-{5-tert-Butyl-2-[3-(2-piperidin-1-yl-ethoxy)-phenyl]-2H-pyrazol-3-yl}-3-{(1S,4R)-4-[3-((S)-2-methyl-piperidin-1-yl)-[1,2,4]triazolo[4,3-a]pyridin-6-yloxy]-1,2,3,4-tetrahydro-naphthalen-1-yl}-urea formate salt]
C[C@H]1CCCCN1c1nnc2ccc(O[C@@H]3CC[C@H](NC(=O)Nc4cc(C(C)(C)C)nn4-c4cccc(OCCN5CCN(C)CC5)c4)c4ccccc43)cn12 [Example 158, 1-(5-tert-Butyl-2-{3-[2-(4-methyl-piperazin-1-yl)-ethoxy]-phenyl}-2H-pyrazol-3-yl)-3-{(1S,4R)-4-[3-((S)-2-methyl-piperidin-1-yl)-[1,2,4]triazolo[4,3-a]pyridin-6-yloxy]-1,2,3,4-tetrahydro-naphthalen-1-yl}-urea formate salt]
C[C@H]1CCCCN1c1nnc2ccc(O[C@@H]3CC[C@H](NC(=O)Nc4cc(C(C)(C)C)nn4-c4cccc(OCCN5CCC(F)CC5)c4)c4ccccc43)cn12 [Example 159, 1-{5-tert-Butyl-2-{3-[2-(4-fluoropiperidin-1-yl)-ethoxy]-phenyl}-2H-pyrazol-3-yl}-3-{(1S,4R)-4-[3-((S)-2-methyl-piperidin-1-yl)-[1,2,4]triazolo[4,3-a]pyridin-6-yloxy]-1,2,3,4-tetrahydro-naphthalen-1-yl}-urea formate salt]
C[C@H]1CCCCN1c1nnc2ccc(O[C@@H]3CC[C@H](NC(=O)Nc4cc(C(C)(C)C)nn4-c4cccc(OCCN5CCCN(C)CC5)c4)c4ccccc43)cn12 [Example 160, 1-(5-tert-Butyl-2-{3-[2-(4-methyl-[1,4]-diazepan-1-yl)-ethoxy]-phenyl}-2H-pyrazol-3-yl)-3-{(1S,4R)-4-[3-((S)-2-methyl-piperidin-1-yl)-[1,2,4]triazolo[4,3-a]pyridin-6-yloxy]-1,2,3,4-tetrahydro-naphthalen-1-yl}-urea formate salt]
C[C@H]1CCCCN1c1nnc2ccc(O[C@@H]3CC[C@H](NC(=O)Nc4cc(C(C)(C)C)nn4-c4cccc(OCCN5C6CCCC5CC6)c4)c4ccccc43)cn12 [Example 162, 1-(2-{3-[2-(8-Aza-bicyclo[3.2.1]oct-8-yl)-ethoxy]-phenyl}-5-tert-butyl-2H-pyrazol-3-yl)-3-{(1S,4R)-4-[3-((S)-2-methyl-piperidin-1-yl)-[1,2,4]triazolo[4,3-a]pyridin-6-yloxy]-1,2,3,4-tetrahydro-naphthalen-1-yl}-urea formate salt]
CCN(C)CCOc1cccc(-n2nc(C(C)(C)C)cc2NC(=O)N[C@H]2CC[C@@H](Oc3ccc4nnc(N5CCCC[C@@H]5C)n4c3)c3ccccc32)c1 [Example 163, 1-(5-tert-Butyl-2-{3-[2-(ethyl-methyl-amino)-ethoxy]-phenyl}-2H-pyrazol-3-yl)-3-{(1S,4R)-4-[3-((S)-2-methyl-piperidin-1-yl)-[1,2,4]triazolo[4,3-a]pyridin-6-yloxy]-1,2,3,4-tetrahydro-naphthalen-1-yl}-urea formate salt]
COC1CCN(CCOc2cccc(-n3nc(C(C)(C)C)cc3NC(=O)N[C@H]3CC[C@@H](Oc4ccc5nnc(N6CCCC[C@@H]6C)n5c4)c4ccccc43)c2)CC1 [Example 165, 1-(5-tert-Butyl-2-{3-[2-(4-methoxy-piperidin-1-yl-ethoxy]-phenyl}-2H-pyrazol-3-yl)-3-{(1S,4R)-4-[3-((S)-2-methyl-piperidin-1-yl)-[1,2,4]triazolo[4,3-a]pyridin-6-yloxy]-1,2,3,4-tetrahydro-naphthalen-1-yl}-urea formate salt]
C[C@H]1CCCCN1c1nnc2ccc(O[C@@H]3CC[C@H](NC(=O)Nc4cc(C(C)(C)C)nn4-c4cccc(OCCN5C6CCC5COC6)c4)c4ccccc43)cn12 [Example 166, 1-(5-tert-Butyl-2-{3-[2-(3-oxa-8-aza-bicyclo[3.2.1]oct-8-yl)-ethoxy]-phenyl}-2H-pyrazol-3-yl)-3-{(1S,4R)-4-[3-((S)-2-methyl-piperidin-1-yl)-[1,2,4]triazolo[4,3-a]pyridin-6-yloxy]-1,2,3,4-tetrahydro-naphthalen-1-yl}-urea formate salt]
COC1CCN(Cc2cccc(-n3nc(C(C)(C)C)cc3NC(=O)N[C@H]3CC[C@@H](Oc4ccc5nnc(N6CCCC[C@@H]6C)n5c4)c4ccccc43)c2)CC1 [Example 167, 1-{5-tert-Butyl-2-[3-(4-methoxy-piperidin-1-ylmethyl)-phenyl]-2H-pyrazol-3-yl}-3-{(1S,4R)-4-[3-((S)-2-methyl-piperidin-1-yl)-[1,2,4]triazolo[4,3-a]pyridin-6-yloxy]-1,2,3,4-tetrahydro-naphthalen-1-yl}-urea formate salt]
COCCN(C)Cc1cccc(-n2nc(C(C)(C)C)cc2NC(=O)N[C@H]2CC[C@@H](Oc3ccc4nnc(N5CCCC[C@@H]5C)n4c3)c3ccccc32)c1 [Example 168, 1-[5-tert-Butyl-2-(3-{[(2-methoxy-ethyl)-methyl-amino]-methyl}-phenyl)-2H-pyrazol-3-yl]-3-{(1S,4R)-4-[3-((S)-2-methyl-piperidin-1-yl)-[1,2,4]triazolo[4,3-a]pyridin-6-yloxy]-1,2,3,4-tetrahydro-naphthalen-1-yl}-urea formate salt]
C[C@H]1CCCCN1c1nnc2ccc(O[C@@H]3CC[C@H](NC(=O)Nc4cc(C(C)(C)C)nn4-c4cccc(CN5CCC(F)CC5)c4)c4ccccc43)cn12 [Example 169, 1-{5-tert-Butyl-2-[3-(4-fluoro-piperidin-1-ylmethyl)-phenyl]-2H-pyrazol-3-yl}-3-{(1S,4R)-4-[3-((S)-2-methyl-piperidin-1-yl)-[1,2,4]triazolo[4,3-a]pyridin-6-yloxy]-1,2,3,4-tetrahydro-naphthalen-1-yl}-urea formate salt]
C[C@H]1CCCCN1c1nnc2ccc(O[C@@H]3CC[C@H](NC(=O)Nc4cc(C(C)(C)C)nn4-c4cccc(CN(C)C)c4)c4ccccc43)cn12 [Example 170, 1-[5-tert-Butyl-2-(3-dimethylaminomethyl-phenyl)-2H-pyrazol-3-yl]-3-{(1S,4R)-4-[3-((S)-2-methyl-piperidin-1-yl)-[1,2,4]triazolo[4,3-a]pyridin-6-yloxy]-1,2,3,4-tetrahydro-naphthalen-1-yl}-urea formate salt]
